Four compounds from patent publication US20260207620A1, “SOLID DISPERSION OF COMPOUND HAVING P2X4 RECEPTOR ANTAGONISTIC ACTION” (NIPPON CHEMIPHAR CO., LTD., priority 2023, published 2026) can be followed below.

Each structure is given as a SMILES string.

Broadly, the AUC(0-t) is the area under the concentration-time curve up to a stated or last time point. A low value points to less exposure. Broadly, the Cmax is the peak of the concentration-time curve. The Tmax is the time at which the peak concentration occurs.

One series in a line: solubility in water. The format is physicochemical.
A short description of series [1]: PK test of compound F2 and its solid dispersion, oral, fasted male Wistar rats. The format is in vivo. To be noted: Wistar (Crlj:WI), rat, compound F2 in plasma, 10 mg/kg (as compound F2) p.o., n=3. The method, then: Fasted male rats (8 weeks old, Wistar (Crlj:WI), Charles River Laboratories Japan, Inc.) were orally administered a crystalline form of the compound F2 suspended in a 1% methylcellulose aqueous solution or a solid dispersion comprising the compound F2 suspended in water for injection. The dosage of the compound F2 in each group was 10 mg/kg (n=3 in each group). Blood samples were collected in a time-dependent manner at 0.5, 1, 2, 4, 6, 8, and 24 hours after oral administration. The concentration of the compound F2 in the obtained plasma was measured by LC-MS/MS (MS/MS: API4000, SCIEX, LC: LC-20AD series, Shimadzu Corporation). Tmax, Cmax, and AUClast were calculated from the plasma concentration transition (Table 5).

Series [2] is described as follows: PK test, solid dispersions E and B of compound F48, single oral dose, fasted male Wistar rats. Type of series: in vivo. To be noted: Wistar (Crlj:WI), rat, compound F48 in plasma, 10 mg/kg (as compound F48) p.o. once, n=3. The method, then: Solid dispersions E and B were prepared using a rotary evaporator according to the following method. The compound F48 was dissolved in THF to result in 2.5 mg/mL. By the same procedure as above, each polymer was prepared to result in 25 mg/mL. Next, the compound F48 solution was added to the polymer solution with stirring such that the weight ratio between the compound F48 and the carrier was 1:25. The resulting mixture was transferred to a recovery flask, and the organic solvent was then removed using a rotary evaporator (Yamato Scientific Co., Ltd., distillation apparatus). The recovery flask was transferred to a desiccator and dried under reduced pressure using a vacuum pump for approximately 16 hours, thereby obtaining solid dispersions E and B. […]
Blood samples were collected in a time-dependent manner before oral administration and at 0.5, 1, 3, 5, 8, and 24 hours after oral administration. The concentration of the compound F48 in the obtained plasma was measured by HPLC (Hitachi High-Technologies Corporation). The time to reach the maximum plasma concentration (Tmax), the maximum plasma concentration (Cmax), and the area under the plasma concentration-time curve (AUClast) were calculated from the plasma concentration transition (Table 2).

In the case of `O=C1CC(=O)N(c2ccc(NC(=O)c3ccccc3C(F)(F)F)cc2)c2ccc3ccccc3c2N1` [Compound F2, 5-[4-[2-(trifluoromethyl)benzoyl]aminophenyl]-1H-naphtho [1,2-b][1,4]diazepine-2,4 (3H,5H)-dione], in “solubility in water”, the solubility in water entry is “poorly soluble in water”. In series [1], the AUC(0-t) is 5710 ± 520 ng·h/mL, the Cmax was determined as 386 ± 56 ng/mL and the time to peak (Tmax) amounted to 4 h. `O=C1CC(=O)N(c2ccc(NC(=O)c3ccccc3I)cc2)c2ccc3ccccc3c2N1` [Compound F48, 5-[4-(2-iodobenzoylamino)phenyl]-1H-naphtho [1,2-b][1,4]diazepine-2,4 (3H,5H)-dione]: the solubility in water result in “solubility in water” was “poorly soluble in water”.

In the case of `CCc1ccccc1C(=O)Nc1ccc(N2C(=O)CC(=O)Nc3c2ccc2ccccc32)cc1` [Compound F57, 5-[4-[(2-ethylbenzoyl)amino]phenyl]-1H-naphtho [1,2-b][1,4]diazepine-2,4 (3H,5H)-dione], the solubility in water result in “solubility in water” is reported as “poorly soluble in water”. Compound `O=C1CC(=O)N(c2ccc(NC(=O)c3ccccc3I)cc2)c2ccc3ccccc3c2N1` [Control, 5-[4-(2-iodobenzoylamino)phenyl]-1H-naphtho [1,2-b][1,4]diazepine-2,4 (3H,5H)-dione] had a Cmax in series [2] of less than 25 ng/mL.
